Inconclusive results and toxic doses are left out. How the source made its calls: active means survival T/C of 150% or more; inactive means T/C below 125% in these data.
System: P388 leukemia ip, CD2F1 mice, survival T/C
Experiment: NCI In Vivo Anticancer Drug Screen. Data for tumor model P388 Leukemia (intraperitoneal) in CD2F1 (CDF1) mice
Conditions: endpoint: median survival time, higher = longer survival
Summary of the method: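 Mice carrying the transplanted tumor received test compound or vehicle. Survival was recorded in each group, and the value is the treated-group measurement divided by that of the vehicle-treated control group.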

[1] = dose: 50.0 mg/kg/injection, schedule: Q01DX009 (ip), vehicle: saline
[2] = dose: 100.0 mg/kg/injection, schedule: Q01DX009 (ip), vehicle: saline
[3] = dose: 200.0 mg/kg/injection, schedule: Q01DX009 (ip), vehicle: saline
[4] = dose: 50.0 mg/kg/injection, schedule: Q01DX009 (ip), vehicle: Klucel (hydroxypropylcellulose) (HPC)
[5] = dose: 60.0 mg/kg/injection, schedule: Q01DX005 (ip), vehicle: saline
[6] = dose: 120.0 mg/kg/injection, schedule: Q01DX005 (ip), vehicle: saline
[7] = dose: 240.0 mg/kg/injection, schedule: Q01DX005 (ip), vehicle: saline

Measured: T/C

C[CH2][Sn]([CH2]C)([CH2]C)[O]C(=O)CO
inactive: dose: 1.56 mg/kg/injection, schedule: Q01DX009 (ip), vehicle: saline with Tween-80 115 % of control | dose: 3.12 mg/kg/injection, schedule: Q01DX009 (ip), vehicle: saline with Tween-80 122 % of control

CC1Cc2nc3ccccc3nc2C1
inactive: dose: 60.0 mg/kg/injection, schedule: Q01DX005 (ip), vehicle: saline with Tween-80 99 % of control | dose: 120.0 mg/kg/injection, schedule: Q01DX005 (ip), vehicle: saline with Tween-80 99 % of control | dose: 240.0 mg/kg/injection, schedule: Q01DX005 (ip), vehicle: saline with Tween-80 104 % of control

CC(C)CC(N)C(=O)NC(Cc1c[nH]c2ccccc12)C(N)=O (stereo not given)
inactive: [1] 93 % of control | [2] 98 % of control | [3] 99 % of control

CC(=O)c1cccc(NC(=O)C2C(=O)C(=O)N(c3cccc(C(C)=O)c3)C2=O)c1 (stereo not given)
inactive: [4] 91 % of control | dose: 100.0 mg/kg/injection, schedule: Q01DX009 (ip), vehicle: Klucel (hydroxypropylcellulose) (HPC) 104 % of control | dose: 200.0 mg/kg/injection, schedule: Q01DX009 (ip), vehicle: Klucel (hydroxypropylcellulose) (HPC) 101 % of control

O=S(=O)(O)CC(O)CN(CCO)CCO (stereo not given)
inactive: [5] 108 % of control | [6] 102 % of control | [7] 100 % of control

O=c1[nH]c(=O)c2c(Br)[nH]nc2[nH]1
inactive: dose: 100.0 mg/kg/injection, schedule: Q01DX001 (ip), vehicle: Klucel (hydroxypropylcellulose) (HPC) 110 % of control | dose: 200.0 mg/kg/injection, schedule: Q01DX001 (ip), vehicle: Klucel (hydroxypropylcellulose) (HPC) 103 % of control

COc1cc(OC)c(-c2oc3c(OC)c(OC)c(OC)c(OC)c3c(=O)c2OC)cc1OC
inactive: dose: 15.0 mg/kg/injection, schedule: Q01DX005 (ip), vehicle: Klucel (hydroxypropylcellulose) (HPC) 94 % of control | dose: 30.0 mg/kg/injection, schedule: Q01DX005 (ip), vehicle: Klucel (hydroxypropylcellulose) (HPC) 102 % of control | dose: 60.0 mg/kg/injection, schedule: Q01DX005 (ip), vehicle: Klucel (hydroxypropylcellulose) (HPC) 92 % of control | dose: 120.0 mg/kg/injection, schedule: Q01DX005 (ip), vehicle: Klucel (hydroxypropylcellulose) (HPC) 90 % of control

O=C(NN(CCN(NC(=O)c1ccccc1)C(=O)c1ccccc1)C(=O)c1ccccc1)c1ccccc1
inactive: dose: 50.0 mg/kg/injection, schedule: Q01DX005 (ip), vehicle: saline with Tween-80 99 % of control | dose: 100.0 mg/kg/injection, schedule: Q01DX005 (ip), vehicle: saline with Tween-80 92 % of control | dose: 200.0 mg/kg/injection, schedule: Q01DX005 (ip), vehicle: saline with Tween-80 96 % of control

COc1ccc(C(=O)/C=C/c2ccc3cc(OC)c(OC)cc3c2)cc1OC
inactive: dose: 3.13 mg/kg/injection, schedule: Q01DX009 (ip), vehicle: Klucel (hydroxypropylcellulose) (HPC) 103 % of control | dose: 6.25 mg/kg/injection, schedule: Q01DX009 (ip), vehicle: Klucel (hydroxypropylcellulose) (HPC) 100 % of control | dose: 12.5 mg/kg/injection, schedule: Q01DX009 (ip), vehicle: Klucel (hydroxypropylcellulose) (HPC) 106 % of control | dose: 25.0 mg/kg/injection, schedule: Q01DX009 (ip), vehicle: Klucel (hydroxypropylcellulose) (HPC) 106 % of control | [4] 98 % of control

C[n+]1cccc(C(=O)OCC(C)(C)N(Cl)Cl)c1
inactive: [1] 109 % of control

O=C(NCCN1CCN2Cc3[nH]c4ccccc4c3CC2C1)c1ccc(Cl)cc1 (stereo not given)
inactive: [5] 102 % of control | [6] 97 % of control | [7] 90 % of control

Cc1ccc[n+](CCC(N)=O)c1
inactive: dose: 100.0 mg/kg/injection, schedule: Q04DX003 (ip), vehicle: saline 100 % of control | dose: 200.0 mg/kg/injection, schedule: Q04DX003 (ip), vehicle: saline 100 % of control | dose: 400.0 mg/kg/injection, schedule: Q04DX003 (ip), vehicle: saline 95 % of control

C=C1C2CC[C@H]3C4(C)CCCC(C)(C(=O)O)[C@H]4CCC3(C2)[C@@H]1OC(C)=O (stereo not given in full)
inactive: dose: 3.5 mg/kg/injection, schedule: Q01DX005 (ip), vehicle: Klucel (hydroxypropylcellulose) (HPC) 108 % of control | dose: 7.0 mg/kg/injection, schedule: Q01DX005 (ip), vehicle: Klucel (hydroxypropylcellulose) (HPC) 97 % of control | dose: 14.0 mg/kg/injection, schedule: Q01DX005 (ip), vehicle: Klucel (hydroxypropylcellulose) (HPC) 100 % of control | dose: 25.0 mg/kg/injection, schedule: Q01DX005 (ip), vehicle: Klucel (hydroxypropylcellulose) (HPC) 88 % of control | dose: 28.0 mg/kg/injection, schedule: Q01DX005 (ip), vehicle: Klucel (hydroxypropylcellulose) (HPC) 94 % of control | dose: 50.0 mg/kg/injection, schedule: Q01DX005 (ip), vehicle: Klucel (hydroxypropylcellulose) (HPC) 90 % of control | dose: 100.0 mg/kg/injection, schedule: Q01DX005 (ip), vehicle: Klucel (hydroxypropylcellulose) (HPC) 90 % of control

CC(=O)CC(=O)OC(C)(C)C#CC(C)(C)OC(=O)CC(C)=O
inactive: [1] 102 % of control | [2] 103 % of control | [3] 100 % of control
